# Laboratory results: ChEMBL document CHEMBL1149262, “Monoamine transporter binding, locomotor activity, and drug discrimination properties of 3-(4-substituted-phenyl)tropane-2-carboxylic acid methyl ester isomers” (J Med Chem, 2004)
# Active and inactive are the calls of the source. The rule behind the calls is not given here.
# Legend:
# [1] = tested on: Rattus norvegicus; assay: Drug discrimination effect in CD Albino rat assessed as percent of rat choosing cocaine lever at 3 mg/kg, ip; format: functional; settings: route intraperitoneal
# [2] = tested on: Mus musculus; assay: Activity in CD1 mouse assessed as death at 100 mg/kg, ip after 4 hrs; format: functional, organism-based; design: dose 100 mg/kg
# [3] = tested on: Mus musculus; assay: Activity in CD1 mouse assessed as flattened body posture at 100 mg/kg, ip after 4 hrs; format: functional, organism-based; design: dose 100 mg/kg
# [4] = tested on: Rattus norvegicus; assay: Drug discrimination effect in CD Albino rat assessed as percent of rat choosing cocaine lever at 10 mg/kg, ip; format: functional; settings: route intraperitoneal
# [5] = tested on: Mus musculus; assay: Activity in CD1 mouse assessed as convulsions at 100 mg/kg, ip after 4 hrs; format: functional, organism-based; design: dose 100 mg/kg
# [6] = tested on: Mus musculus; assay: Locomotor activity in CD1 mouse assessed as stimulation at 30 mg/kg, ip after 3 hrs relative to control; format: functional; settings: route intraperitoneal
# [7] = tested on: Mus musculus; assay: Activity in CD1 mouse assessed as hypoactivity at 100 mg/kg, ip after 4 hrs; format: functional, organism-based; design: dose 100 mg/kg
# [8] = tested on: Mus musculus; assay: Locomotor activity in CD1 mouse assessed as stimulation at 30 mg/kg, ip after 2 hrs relative to control; format: functional; settings: route intraperitoneal
# [9] = tested on: Mus musculus; assay: Locomotor activity in CD1 mouse assessed as stimulation at 10 mg/kg, ip after 1 hr relative to control; format: functional; settings: route intraperitoneal
# [10] = tested on: Mus musculus; assay: Locomotor activity in CD1 mouse assessed as stimulation at 1 mg/kg, ip after 1 hr relative to control; format: functional; settings: route intraperitoneal
# [11] = tested on: Mus musculus; assay: Locomotor activity in CD1 mouse assessed as stimulation at 3 mg/kg, ip after 4 hrs relative to control; format: functional; settings: route intraperitoneal
# [12] = tested on: Mus musculus; assay: Locomotor activity in CD1 mouse assessed as stimulation at 3 mg/kg, ip after 2 hrs relative to control; format: functional; settings: route intraperitoneal
# [13] = tested on: Mus musculus; assay: Locomotor activity in CD1 mouse assessed as stimulation at 30 mg/kg, ip after 4 hrs relative to control; format: functional; settings: route intraperitoneal
# [14] = tested on: Mus musculus; assay: Locomotor activity in CD1 mouse assessed as stimulation at 1 mg/kg, ip after 3 hrs relative to control; format: functional; settings: route intraperitoneal
# [15] = tested on: Mus musculus; assay: Locomotor activity in CD1 mouse assessed as stimulation at 30 mg/kg, ip after 1 hr relative to control; format: functional; settings: route intraperitoneal
# [16] = tested on: Rattus norvegicus; assay: Drug discrimination effect in CD Albino rat assessed as percent of rat choosing cocaine lever at 1 mg/kg, ip; format: functional; settings: route intraperitoneal
# [17] = tested on: Mus musculus; assay: Locomotor activity in CD1 mouse assessed as stimulation at 3 mg/kg, ip after 1 hr relative to control; format: functional; settings: route intraperitoneal
# [18] = tested on: Mus musculus; assay: Locomotor activity in CD1 mouse assessed as stimulation at 10 mg/kg, ip after 2 hrs relative to control; format: functional; settings: route intraperitoneal
# [19] = tested on: Rattus norvegicus; assay: Drug discrimination effect in CD Albino rat assessed as percent of rat choosing cocaine lever at 5.6 mg/kg, ip; format: functional; settings: route intraperitoneal
# [20] = tested on: Mus musculus; assay: Locomotor activity in CD1 mouse assessed as stimulation at 3 mg/kg, ip after 3 hrs relative to control; format: functional; settings: route intraperitoneal
# [21] = tested on: Mus musculus; assay: Locomotor activity in CD1 mouse assessed as stimulation at 10 mg/kg, ip after 3 hrs relative to control; format: functional; settings: route intraperitoneal
# [22] = tested on: Mus musculus; assay: Locomotor activity in CD1 mouse assessed as stimulation at 1 mg/kg, ip after 2 hrs relative to control; format: functional; settings: route intraperitoneal
# [23] = tested on: Mus musculus; assay: Locomotor activity in CD1 mouse assessed as stimulation at 10 mg/kg, ip after 4 hrs relative to control; format: functional; settings: route intraperitoneal
# [24] = tested on: Mus musculus; assay: Locomotor activity in CD1 mouse assessed as stimulation at 1 mg/kg, ip after 4 hrs relative to control; format: functional; settings: route intraperitoneal
# [25] = biological target: Sodium-dependent noradrenaline transporter (Homo sapiens, UniProt P23975); assay: Displacement of [3H]nisoxetine from NET
# [26] = biological target: Sodium-dependent dopamine transporter (Homo sapiens, UniProt Q01959); assay: Displacement of [3H]WIN-35428 from DAT
# [27] = tested on: Mus musculus; assay: Activity in CD1 mouse assessed as hind limb splay at 100 mg/kg, ip after 4 hrs; format: functional, organism-based; design: dose 100 mg/kg; settings: Hindlimb
# [28] = tested on: Mus musculus; assay: Activity in CD1 mouse assessed as ptosis at 100 mg/kg, ip after 4 hrs; format: functional, organism-based; design: dose 100 mg/kg
# [29] = tested on: Mus musculus; assay: Activity in CD1 mouse assessed as circling at 100 mg/kg, ip after 4 hrs; format: functional, organism-based; design: dose 100 mg/kg
# [30] = tested on: Rattus norvegicus; assay: Cocaine discrimination in ip dosed CD Albino rat; format: functional
# [31] = tested on: Mus musculus; assay: Activity in CD1 mouse assessed as stereotypy at 100 mg/kg, ip after 4 hrs; format: functional, organism-based; design: dose 100 mg/kg
# [32] = tested on: Mus musculus; assay: Locomotor activity in CD1 mouse assessed as stimulation at 100 mg/kg, ip after 2 hrs relative to control; format: functional; settings: route intraperitoneal
# [33] = tested on: Mus musculus; assay: Locomotor activity in ip dosed CD1 mouse in peak hour; format: functional
# [34] = tested on: Mus musculus; assay: Locomotor activity in CD1 mouse assessed as stimulation at 100 mg/kg, ip after 4 hrs relative to control; format: functional; settings: route intraperitoneal
# [35] = tested on: Mus musculus; assay: Locomotor activity in CD1 mouse assessed as stimulation at 100 mg/kg, ip after 1 hr relative to control; format: functional; settings: route intraperitoneal
# [36] = tested on: Mus musculus; assay: Activity in CD1 mouse assessed as hyperactivity at 10 mg/kg, ip after 4 hrs; format: functional, organism-based; design: dose 10 mg/kg
# [37] = tested on: Mus musculus; assay: Activity in CD1 mouse assessed as stimulation at 100 mg/kg, ip after 4 hrs; format: functional, organism-based; design: dose 100 mg/kg
# [38] = tested on: Mus musculus; assay: Locomotor activity in CD1 mouse assessed as stimulation at 100 mg/kg, ip after 3 hrs relative to control; format: functional; settings: route intraperitoneal
# [39] = tested on: Rattus norvegicus; assay: Drug discrimination effect in CD Albino rat assessed as percent of rat choosing cocaine lever at 1.7 mg/kg, ip; format: functional; settings: route intraperitoneal
# [40] = tested on: Mus musculus; assay: Activity in CD1 mouse assessed as ataxia at 100 mg/kg, ip after 4 hrs; format: functional, organism-based; design: dose 100 mg/kg
# [41] = tested on: Rattus norvegicus; assay: Drug discrimination effect in CD Albino rat assessed as percent of rat choosing cocaine lever at 17 mg/kg, ip; format: functional; settings: route intraperitoneal
# [42] = tested on: Mus musculus; assay: Activity in CD1 mouse assessed as tremor at 100 mg/kg, ip after 4 hrs; format: functional, organism-based; design: dose 100 mg/kg
# [43] = tested on: Mus musculus; assay: Activity in CD1 mouse assessed as hyperactivity at 100 mg/kg, ip after 4 hrs; format: functional, organism-based; design: dose 100 mg/kg
# [44] = tested on: Rattus norvegicus; assay: Drug discrimination effect in CD Albino rat assessed as percent of rat choosing cocaine lever at 30 mg/kg, ip; format: functional; settings: route intraperitoneal
# [45] = tested on: Mus musculus; assay: Activity in CD1 mouse assessed as slight or intermittent hyperactivity at 10 mg/kg, ip after 4 hrs; format: functional, organism-based; design: dose 10 mg/kg
# Sequence of Sodium-dependent dopamine transporter (Q01959 whole entry): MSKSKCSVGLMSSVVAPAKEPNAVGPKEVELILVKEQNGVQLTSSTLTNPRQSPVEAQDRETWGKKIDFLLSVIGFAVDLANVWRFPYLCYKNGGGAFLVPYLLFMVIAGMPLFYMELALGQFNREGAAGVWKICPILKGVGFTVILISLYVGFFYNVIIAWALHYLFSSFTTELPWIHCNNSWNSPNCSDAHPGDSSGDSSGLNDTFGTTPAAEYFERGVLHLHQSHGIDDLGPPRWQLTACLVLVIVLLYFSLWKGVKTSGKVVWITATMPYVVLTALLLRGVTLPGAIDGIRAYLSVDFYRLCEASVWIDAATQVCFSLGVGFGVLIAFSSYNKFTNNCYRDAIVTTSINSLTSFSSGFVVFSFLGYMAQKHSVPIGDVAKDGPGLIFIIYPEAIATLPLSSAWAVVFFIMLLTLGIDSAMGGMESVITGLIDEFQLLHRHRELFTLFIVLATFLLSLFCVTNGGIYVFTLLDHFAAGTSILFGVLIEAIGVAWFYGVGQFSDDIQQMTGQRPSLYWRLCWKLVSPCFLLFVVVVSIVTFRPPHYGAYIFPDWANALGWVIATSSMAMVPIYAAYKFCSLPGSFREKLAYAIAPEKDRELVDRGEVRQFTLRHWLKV
# Sequence of Sodium-dependent noradrenaline transporter (P23975 whole entry): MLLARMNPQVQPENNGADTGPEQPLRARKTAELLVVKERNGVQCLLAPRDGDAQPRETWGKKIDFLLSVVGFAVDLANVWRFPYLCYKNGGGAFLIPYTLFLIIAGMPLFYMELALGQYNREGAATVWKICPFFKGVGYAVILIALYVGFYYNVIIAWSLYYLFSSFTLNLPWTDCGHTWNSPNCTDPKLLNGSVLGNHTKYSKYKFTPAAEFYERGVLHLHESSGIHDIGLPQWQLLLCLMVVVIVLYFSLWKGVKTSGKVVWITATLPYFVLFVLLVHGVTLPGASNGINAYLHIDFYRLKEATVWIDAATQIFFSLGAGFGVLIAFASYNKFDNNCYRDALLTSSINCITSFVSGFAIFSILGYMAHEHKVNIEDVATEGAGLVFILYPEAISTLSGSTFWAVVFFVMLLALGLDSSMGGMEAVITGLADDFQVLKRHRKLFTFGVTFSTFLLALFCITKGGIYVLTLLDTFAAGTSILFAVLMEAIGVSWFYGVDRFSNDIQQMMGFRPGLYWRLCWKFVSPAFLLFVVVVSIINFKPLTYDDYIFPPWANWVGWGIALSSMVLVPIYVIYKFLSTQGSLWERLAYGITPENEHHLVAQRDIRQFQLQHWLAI
smiles,measurement,setting,value
COC(=O)[C@H]1[C@H]2CCC(C[C@H]1c1ccc(Cl)cc1)N2C,Activity,[1],0%
same,Activity,[2],Active
same,Activity,[3],Active
same,Activity,[4],13%
same,Activity,[5],Active
same,Activity,[6],125%
same,Activity,[7],Active
same,Activity,[8],-27%
same,Activity,[9],51%
same,Activity,[10],6%
same,Activity,[11],69%
same,Activity,[12],128%
same,Activity,[13],-27%
same,Activity,[14],154%
same,Activity,[15],-46%
same,Activity,[16],13%
same,Activity,[17],16%
same,Activity,[18],169%
same,Activity,[19],13%
same,Activity,[20],107%
same,Activity,[21],114%
same,Activity,[22],182%
same,Activity,[23],41%
same,Activity,[24],45%
COC(=O)[C@H]1[C@H]2CCC(C[C@H]1c1ccc(C)cc1)N2C,Activity,[1],0%
same,Activity,[2],Active
same,Activity,[3],Active
same,Activity,[4],0%
same,Activity,[5],Active
same,Activity,[6],78%
same,IC50,[25],3.85 µM
same,Ki,[25],1.93 µM
same,Activity,[8],-36%
same,Activity,[9],8%
same,Activity,[10],-15%
same,Activity,[11],56%
same,Activity,[12],132%
same,Activity,[13],-35%
same,IC50,[26],0.0234 µM
same,Activity,[14],118%
same,Activity,[15],-57%
same,Activity,[16],13%
same,Activity,[17],6%
same,Activity,[18],96%
same,Activity,[19],13%
same,Activity,[20],47%
same,Activity,[21],120%
same,Activity,[22],110%
same,Activity,[23],-36%
same,Activity,[24],-51%
same,Activity,[27],Active
same,Activity,[28],Active
COC(=O)[C@@H]1C2CCC(C[C@H]1c1ccc(Cl)cc1)N2C (stereo partly specified),Activity,[1],67%
same,Activity,[29],Active
same,ED50,[30],2.55 mg/kg
same,Activity,[31],Active
same,Activity,[4],100%
same,Activity,[6],1002%
same,Activity,[32],217%
same,ED50,[33],9.1 mg/kg
same,Activity,[8],1127%
same,Activity,[9],340%
same,Activity,[11],38%
same,Activity,[12],64%
same,Activity,[13],158%
same,IC50,[26],0.0031 µM
same,Activity,[34],598%
same,Activity,[35],487%
same,Activity,[15],868%
same,Activity,[16],25%
same,Activity,[17],49%
same,Activity,[36],Active
same,Activity,[18],322%
same,Activity,[19],67%
same,Activity,[20],135%
same,Activity,[21],373%
same,Activity,[37],Active
same,Activity,[38],1065%
same,Activity,[23],11%
same,Activity,[39],25%
COC(=O)[C@H]1C2CCC(C[C@@H]1c1ccccc1)N2C (stereo partly specified),Activity,[29],Active
same,ED50,[30],7.66 mg/kg
same,Activity,[4],67%
same,Activity,[5],Active
same,Activity,[40],Active
same,Activity,[6],69%
same,ED50,[33],11.7 mg/kg
same,IC50,[25],> 10 µM
same,Activity,[8],122%
same,Activity,[9],35%
same,Activity,[10],9%
same,Activity,[11],-50%
same,Activity,[12],-20%
same,Activity,[41],100%
same,Activity,[13],12%
same,IC50,[26],0.67 µM
same,Activity,[14],12%
same,Activity,[42],Active
same,Activity,[15],138%
same,Activity,[17],-14%
same,Activity,[18],16%
same,Activity,[19],29%
same,Activity,[20],-9%
same,Activity,[21],-16%
same,Activity,[22],35%
same,Activity,[37],Active
same,Activity,[23],-27%
same,Activity,[24],-60%
same,Activity,[27],Active
COC(=O)[C@@H]1C2CCC(C[C@H]1c1ccc(C)cc1)N2C (stereo partly specified),Activity,[1],29%
same,Activity,[29],Active
same,ED50,[30],7.73 mg/kg
same,Activity,[31],Active
same,Activity,[4],43%
same,Activity,[43],Active
same,Activity,[6],5%
same,Activity,[32],436%
same,ED50,[33],14.7 mg/kg
same,IC50,[25],0.27 µM
same,Ki,[25],0.16 µM
same,Activity,[8],147%
same,Activity,[9],294%
same,Activity,[44],100%
same,Activity,[11],-41%
same,Activity,[12],29%
same,Activity,[41],75%
same,Activity,[13],-66%
same,IC50,[26],0.0102 µM
same,Activity,[34],18%
same,Activity,[35],843%
same,Activity,[15],482%
same,Activity,[16],0%
same,Activity,[17],28%
same,Activity,[18],149%
same,Activity,[19],43%
same,Activity,[45],Active
same,Activity,[20],-6%
same,Activity,[21],108%
same,Activity,[38],263%
same,Activity,[23],22%
same,Activity,[39],14%
